Test results: ChEMBL document CHEMBL1139077, “Dopamine/serotonin receptor ligands. Part 15: Oxygenation of the benz-indolo-azecine LE 300 leads to novel subnanomolar dopamine D1/D5 antagonists” (Bioorg Med Chem Lett, 2007)
Calls of active or inactive are those of the source. The rule behind the calls is not given here.

What was measured:
[1] = Binding affinity to human cloned dopamine D4.4 receptor expressed in CHO cells; assay type: cell-based
D(1B) dopamine receptor [2] = target: T1, D(1B) dopamine receptor (Homo sapiens, UniProt P21918); test: Binding affinity to human cloned dopamine D5 receptor expressed in HEK 293 cells; assay type: cell-based, HEK293
D(1A) dopamine receptor [3] = target: T2, D(1A) dopamine receptor (Homo sapiens, UniProt P21728); test: Displacement of [3H]SCH 23390 from human cloned dopamine D1 receptor expressed in HEK 293 cells; assay type: cell-based, HEK293
D(2) dopamine receptor [4] = target: T3, D(2) dopamine receptor (Homo sapiens, UniProt P14416); test: Displacement of [3H]spiperone from human cloned dopamine D2L receptor expressed in CHO cells; assay type: cell-based
D(3) dopamine receptor = D(3) dopamine receptor (Homo sapiens, UniProt P35462); test: Binding affinity to human cloned dopamine D3 receptor expressed in CHO cells; assay type: cell-based
D(1A) dopamine receptor [5] = target: T2, D(1A) dopamine receptor; test: Agonist activity at human dopamine D1 receptor assessed as increase in […] calcium concentration by calcium fluorescence assay; assay type: functional
D(1B) dopamine receptor [6] = target: T1, D(1B) dopamine receptor; test: Agonist activity at human dopamine D5 receptor assessed as increase in […] calcium concentration by calcium fluorescence assay; assay type: functional
D(2) dopamine receptor [7] = target: T3, D(2) dopamine receptor; test: Agonist activity at human dopamine D2 receptor assessed as increase in […] calcium concentration by calcium fluorescence assay; assay type: functional
D(2) dopamine receptor [8] = target: T3, D(2) dopamine receptor; test: Activity at human dopamine D2 receptor assessed as quinpirol-induced suppression of calcium signal by calcium fluorescence assay; assay type: functional
D(1B) dopamine receptor [9] = target: T1, D(1B) dopamine receptor; test: Activity at human dopamine D5 receptor assessed as SKF 38393-induced suppression of calcium signal by calcium fluorescence assay; assay type: functional

T2 sequence (P21728 whole entry): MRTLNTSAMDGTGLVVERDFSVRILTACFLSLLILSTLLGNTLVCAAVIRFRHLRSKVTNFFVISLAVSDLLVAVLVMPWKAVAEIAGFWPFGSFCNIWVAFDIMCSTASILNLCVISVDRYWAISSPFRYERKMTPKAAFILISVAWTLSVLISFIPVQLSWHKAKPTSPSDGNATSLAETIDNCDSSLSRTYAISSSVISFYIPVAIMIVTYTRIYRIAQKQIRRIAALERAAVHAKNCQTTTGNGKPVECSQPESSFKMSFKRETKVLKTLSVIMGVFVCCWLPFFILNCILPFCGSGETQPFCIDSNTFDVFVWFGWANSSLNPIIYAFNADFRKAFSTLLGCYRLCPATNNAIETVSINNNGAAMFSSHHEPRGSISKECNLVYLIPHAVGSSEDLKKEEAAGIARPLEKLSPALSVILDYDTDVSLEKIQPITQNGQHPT
T1 sequence (P21918 whole entry): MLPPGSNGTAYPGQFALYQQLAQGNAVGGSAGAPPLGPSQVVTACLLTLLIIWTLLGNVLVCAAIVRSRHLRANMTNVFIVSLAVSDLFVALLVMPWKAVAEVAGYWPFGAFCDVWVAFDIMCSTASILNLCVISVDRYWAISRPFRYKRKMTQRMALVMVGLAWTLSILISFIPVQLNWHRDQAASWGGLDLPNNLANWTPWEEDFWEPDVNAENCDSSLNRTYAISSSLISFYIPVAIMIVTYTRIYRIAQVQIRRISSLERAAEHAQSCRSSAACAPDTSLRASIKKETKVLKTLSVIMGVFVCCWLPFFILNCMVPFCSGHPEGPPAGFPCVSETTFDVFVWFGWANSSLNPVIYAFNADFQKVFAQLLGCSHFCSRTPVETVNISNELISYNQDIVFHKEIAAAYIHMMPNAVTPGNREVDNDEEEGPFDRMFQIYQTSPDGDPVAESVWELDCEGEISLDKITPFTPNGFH
T3 sequence (P14416 whole entry): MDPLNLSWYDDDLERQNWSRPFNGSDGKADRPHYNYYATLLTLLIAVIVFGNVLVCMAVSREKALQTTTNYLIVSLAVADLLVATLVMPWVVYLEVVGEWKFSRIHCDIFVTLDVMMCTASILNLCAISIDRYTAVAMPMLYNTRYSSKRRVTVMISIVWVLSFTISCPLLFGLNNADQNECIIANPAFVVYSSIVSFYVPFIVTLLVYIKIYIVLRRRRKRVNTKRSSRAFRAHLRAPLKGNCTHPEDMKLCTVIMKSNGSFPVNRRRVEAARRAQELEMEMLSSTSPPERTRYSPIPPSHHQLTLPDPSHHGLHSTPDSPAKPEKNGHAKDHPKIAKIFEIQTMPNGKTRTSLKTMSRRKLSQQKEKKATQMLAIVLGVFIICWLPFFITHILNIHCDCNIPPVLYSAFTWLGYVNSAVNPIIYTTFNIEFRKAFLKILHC
Chain of D(3) dopamine receptor (P35462 whole entry): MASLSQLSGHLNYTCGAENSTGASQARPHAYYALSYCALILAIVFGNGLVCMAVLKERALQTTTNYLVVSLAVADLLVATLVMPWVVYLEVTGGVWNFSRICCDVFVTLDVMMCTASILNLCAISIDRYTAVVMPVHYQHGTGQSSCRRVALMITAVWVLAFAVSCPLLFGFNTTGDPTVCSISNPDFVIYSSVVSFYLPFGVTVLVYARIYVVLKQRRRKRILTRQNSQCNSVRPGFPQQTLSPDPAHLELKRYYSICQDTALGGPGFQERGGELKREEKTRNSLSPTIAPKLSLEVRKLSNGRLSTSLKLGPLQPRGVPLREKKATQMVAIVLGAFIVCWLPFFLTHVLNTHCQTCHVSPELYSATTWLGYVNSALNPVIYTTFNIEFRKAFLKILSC

| SMILES | Ki [1] | Ki (D(1B) dopamine receptor [2]) | Ki (D(1A) dopamine receptor [3]) | Ki (D(2) dopamine receptor [4]) | Ki (D(3) dopamine receptor) | Activity (D(1A) dopamine receptor [5]) | Activity (D(1B) dopamine receptor [6]) | Activity (D(2) dopamine receptor [7]) | Activity (D(2) dopamine receptor [8]) | Activity (D(1B) dopamine receptor [9]) |
| --- | --- | --- | --- | --- | --- | --- | --- | --- | --- | --- |
| COc1ccc2c(c1)CCN(C)CCc1ccccc1C2 | 43.4 nM | 38.3 nM | – | – | – | – | – | – | – | – |
| COc1ccc2c(c1)c1c(n2C)Cc2ccccc2CCN(C)CC1 | 21.6 nM | 0.23 nM | 2 nM | 1.7 nM | 3.78 nM | – | – | – | – | – |
| CN1CCc2ccccc2Cc2ccc(O)cc2CC1 | – | – | – | – | – | inactive | inactive | – | – | – |
| CN1CCc2ccccc2Cc2[nH]c3ccccc3c2CC1 | 109 nM | – | – | – | 40.3 nM | inactive | inactive | inactive | Active | Active |
| CN1CCc2ccccc2Cc2[nH]c3ccc(O)cc3c2CC1 | 398 nM | 0.39 nM | 0.56 nM | 38.4 nM | 944 nM | – | – | – | – | – |
| COc1ccc2[nH]c3c(c2c1)CCN(C)CCc1ccccc1C3 | 266 nM | 3.6 nM | 0.82 nM | 11.9 nM | 475 nM | – | – | – | – | – |
| COc1ccc2c(c1)CCN(C)CCc1c([nH]c3ccccc13)C2 | 92.6 nM | 31.5 nM | 19 nM | 22.8 nM | 1140 nM | – | – | – | – | – |
| CN1CCc2cc(O)ccc2Cc2[nH]c3ccccc3c2CC1 | 1360 nM | 5.4 nM | 3.7 nM | 74.7 nM | 2070 nM | – | – | – | – | – |
